The text below walks through data of patent publication US12421232B2, “Kinase inhibitor compounds and compositions and methods of use” (ICAHN SCHOOL OF MEDICINE AT MOUNT SINAI, priority 2018, dated 2025).

Each structure is given as a SMILES string. Read-outs that look alike come from different tables or passages of the source.

What all share (assay): KINOMEscan Assay (DiscoverX)
Format in all cases: binding
Conditions in all cases: read-out: % DMSO Ctrl

One experiment has as its target T1, IRAK1 (Homo sapiens, UniProt P51617).
T1 construct: purchased DiscoverX

A further experiment deals with T2, DYRK1B (Homo sapiens, UniProt Q9Y463).
T2 construct: purchased DiscoverX

A further experiment deals with T3, CSNK1G2 (Homo sapiens, UniProt P78368).
T3 construct: purchased DiscoverX

The target in the next experiment is T4, CDK7 (Homo sapiens, UniProt P50613).
T4 construct: purchased DiscoverX

The next experiment addresses T5, IRAK4 (Homo sapiens, UniProt Q9NWZ3).
T5 construct: purchased DiscoverX
T5 sequence (Q9NWZ3 1-460): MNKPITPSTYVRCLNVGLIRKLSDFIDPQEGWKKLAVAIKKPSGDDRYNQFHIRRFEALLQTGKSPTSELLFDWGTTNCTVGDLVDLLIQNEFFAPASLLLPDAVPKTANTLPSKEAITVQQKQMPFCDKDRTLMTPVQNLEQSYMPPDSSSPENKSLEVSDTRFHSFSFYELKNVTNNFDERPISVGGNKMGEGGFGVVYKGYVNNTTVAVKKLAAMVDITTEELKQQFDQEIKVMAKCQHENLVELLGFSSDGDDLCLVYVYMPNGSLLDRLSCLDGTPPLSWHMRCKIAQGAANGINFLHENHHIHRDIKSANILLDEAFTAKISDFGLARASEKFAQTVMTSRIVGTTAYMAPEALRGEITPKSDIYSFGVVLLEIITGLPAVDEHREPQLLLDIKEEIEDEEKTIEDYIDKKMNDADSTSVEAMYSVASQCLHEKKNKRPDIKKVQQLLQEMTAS

In a further experiment the target is T6, KIT (Homo sapiens, UniProt P10721).
T6 construct: purchased DiscoverX

The target of another experiment is T7, FLT3(N841I) (Homo sapiens, UniProt P36888, N841I).
T7 construct: purchased DiscoverX
T7 sequence (P36888 27-993 N841I): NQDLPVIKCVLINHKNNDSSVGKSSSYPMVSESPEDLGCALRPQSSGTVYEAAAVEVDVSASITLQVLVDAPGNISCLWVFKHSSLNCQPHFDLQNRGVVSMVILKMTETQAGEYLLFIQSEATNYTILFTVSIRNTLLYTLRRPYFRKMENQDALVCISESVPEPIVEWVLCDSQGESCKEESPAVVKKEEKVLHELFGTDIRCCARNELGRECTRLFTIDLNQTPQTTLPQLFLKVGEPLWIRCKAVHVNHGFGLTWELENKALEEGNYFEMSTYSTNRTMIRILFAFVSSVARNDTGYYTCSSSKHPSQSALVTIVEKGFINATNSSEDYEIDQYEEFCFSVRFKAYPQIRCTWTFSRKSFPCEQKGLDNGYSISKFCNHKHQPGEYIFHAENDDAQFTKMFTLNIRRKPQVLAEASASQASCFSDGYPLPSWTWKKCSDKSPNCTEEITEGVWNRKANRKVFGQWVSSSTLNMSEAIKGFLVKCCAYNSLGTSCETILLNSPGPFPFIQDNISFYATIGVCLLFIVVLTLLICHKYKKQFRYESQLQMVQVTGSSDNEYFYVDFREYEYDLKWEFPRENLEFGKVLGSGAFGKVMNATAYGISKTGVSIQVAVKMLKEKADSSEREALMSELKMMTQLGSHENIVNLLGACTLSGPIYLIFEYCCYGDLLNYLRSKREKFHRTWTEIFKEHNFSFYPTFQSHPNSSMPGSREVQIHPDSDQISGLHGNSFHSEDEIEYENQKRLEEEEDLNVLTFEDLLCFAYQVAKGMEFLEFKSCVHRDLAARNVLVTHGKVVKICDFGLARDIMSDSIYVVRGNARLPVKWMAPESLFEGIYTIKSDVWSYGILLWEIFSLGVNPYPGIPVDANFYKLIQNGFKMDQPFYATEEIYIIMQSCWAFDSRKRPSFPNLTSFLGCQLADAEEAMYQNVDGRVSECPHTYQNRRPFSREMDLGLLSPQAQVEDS

The target in a further experiment is T8, LRRK2(G2019S) (Homo sapiens, UniProt Q5S007, G2019S).
T8 construct: purchased DiscoverX

Another experiment concerns the target T9, ADCK4 (Homo sapiens, UniProt Q96D53).
T9 construct: purchased DiscoverX
T9 sequence (Q96D53 1-544): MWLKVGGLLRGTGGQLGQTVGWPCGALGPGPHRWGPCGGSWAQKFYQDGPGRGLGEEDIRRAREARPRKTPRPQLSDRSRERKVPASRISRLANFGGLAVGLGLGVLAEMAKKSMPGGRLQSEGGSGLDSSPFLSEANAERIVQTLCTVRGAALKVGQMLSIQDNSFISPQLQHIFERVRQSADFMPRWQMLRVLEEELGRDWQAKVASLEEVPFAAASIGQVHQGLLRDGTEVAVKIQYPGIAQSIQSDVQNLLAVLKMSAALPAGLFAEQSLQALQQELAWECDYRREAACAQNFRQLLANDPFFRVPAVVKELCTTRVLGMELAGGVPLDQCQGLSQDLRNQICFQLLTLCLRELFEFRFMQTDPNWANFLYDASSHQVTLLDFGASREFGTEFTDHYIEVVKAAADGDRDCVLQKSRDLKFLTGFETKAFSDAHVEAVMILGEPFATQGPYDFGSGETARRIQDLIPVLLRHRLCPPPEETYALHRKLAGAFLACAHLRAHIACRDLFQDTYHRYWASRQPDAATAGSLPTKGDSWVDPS

Another experiment addresses T10, CAMK2A (Homo sapiens, UniProt Q9UQM7).
T10 construct: purchased DiscoverX

The target of a further experiment is T11, CLK3 (Homo sapiens, UniProt P49761).
T11 construct: purchased DiscoverX

A further experiment deals with T12, PIK3CG (Homo sapiens, UniProt P48736).
T12 construct: purchased DiscoverX

For a further experiment, the target named is T13, KIT(V559D) (Homo sapiens, UniProt P10721, V559D).
T13 construct: purchased DiscoverX
T13 sequence (P10721 26-976 V559D): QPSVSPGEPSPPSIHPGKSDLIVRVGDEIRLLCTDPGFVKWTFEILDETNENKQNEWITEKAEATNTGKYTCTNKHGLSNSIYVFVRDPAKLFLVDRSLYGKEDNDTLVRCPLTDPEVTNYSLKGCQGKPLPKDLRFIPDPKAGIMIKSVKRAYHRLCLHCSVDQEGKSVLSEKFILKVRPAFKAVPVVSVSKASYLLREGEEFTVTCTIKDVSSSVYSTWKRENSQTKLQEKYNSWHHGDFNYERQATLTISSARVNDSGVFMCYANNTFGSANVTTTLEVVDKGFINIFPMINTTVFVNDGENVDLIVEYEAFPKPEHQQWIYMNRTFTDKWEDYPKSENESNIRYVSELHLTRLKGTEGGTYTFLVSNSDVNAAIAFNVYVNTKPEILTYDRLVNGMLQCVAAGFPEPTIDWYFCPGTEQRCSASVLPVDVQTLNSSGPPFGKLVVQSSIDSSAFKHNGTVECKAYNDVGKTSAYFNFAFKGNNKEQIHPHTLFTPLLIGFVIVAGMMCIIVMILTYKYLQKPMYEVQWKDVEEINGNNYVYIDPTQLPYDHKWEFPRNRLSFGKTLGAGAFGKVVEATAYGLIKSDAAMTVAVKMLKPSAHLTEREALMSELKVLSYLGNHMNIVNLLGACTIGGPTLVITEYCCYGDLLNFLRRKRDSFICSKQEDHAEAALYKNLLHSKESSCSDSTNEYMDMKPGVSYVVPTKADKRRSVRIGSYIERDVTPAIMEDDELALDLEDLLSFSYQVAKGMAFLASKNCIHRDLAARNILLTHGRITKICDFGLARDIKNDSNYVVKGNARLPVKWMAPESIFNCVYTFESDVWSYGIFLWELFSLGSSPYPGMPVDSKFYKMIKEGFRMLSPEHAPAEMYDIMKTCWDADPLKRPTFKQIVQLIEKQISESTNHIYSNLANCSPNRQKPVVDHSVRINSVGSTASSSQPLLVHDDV

T6 sequence (P10721 26-976): as the sequence (P10721 26-976 V559D) above, with D534V counted along it
T2 sequence (Q9Y463 whole entry): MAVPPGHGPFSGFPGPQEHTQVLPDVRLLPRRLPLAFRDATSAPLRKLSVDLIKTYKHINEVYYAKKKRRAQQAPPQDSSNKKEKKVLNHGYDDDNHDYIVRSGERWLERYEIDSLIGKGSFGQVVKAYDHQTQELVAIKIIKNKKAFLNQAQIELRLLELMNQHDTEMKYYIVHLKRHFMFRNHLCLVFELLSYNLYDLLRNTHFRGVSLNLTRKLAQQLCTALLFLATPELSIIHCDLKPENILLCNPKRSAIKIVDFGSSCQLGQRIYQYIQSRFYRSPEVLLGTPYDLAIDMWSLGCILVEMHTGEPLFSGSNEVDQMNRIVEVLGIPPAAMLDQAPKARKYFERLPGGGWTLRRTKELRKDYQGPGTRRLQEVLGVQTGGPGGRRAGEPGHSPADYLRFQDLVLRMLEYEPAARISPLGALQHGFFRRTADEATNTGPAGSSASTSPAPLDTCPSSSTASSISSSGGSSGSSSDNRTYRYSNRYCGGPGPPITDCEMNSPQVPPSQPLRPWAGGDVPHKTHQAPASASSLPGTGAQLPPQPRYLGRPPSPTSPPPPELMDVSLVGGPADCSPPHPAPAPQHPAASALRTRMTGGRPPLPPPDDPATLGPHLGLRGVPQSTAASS
T8 sequence (Q5S007 whole entry G2019S): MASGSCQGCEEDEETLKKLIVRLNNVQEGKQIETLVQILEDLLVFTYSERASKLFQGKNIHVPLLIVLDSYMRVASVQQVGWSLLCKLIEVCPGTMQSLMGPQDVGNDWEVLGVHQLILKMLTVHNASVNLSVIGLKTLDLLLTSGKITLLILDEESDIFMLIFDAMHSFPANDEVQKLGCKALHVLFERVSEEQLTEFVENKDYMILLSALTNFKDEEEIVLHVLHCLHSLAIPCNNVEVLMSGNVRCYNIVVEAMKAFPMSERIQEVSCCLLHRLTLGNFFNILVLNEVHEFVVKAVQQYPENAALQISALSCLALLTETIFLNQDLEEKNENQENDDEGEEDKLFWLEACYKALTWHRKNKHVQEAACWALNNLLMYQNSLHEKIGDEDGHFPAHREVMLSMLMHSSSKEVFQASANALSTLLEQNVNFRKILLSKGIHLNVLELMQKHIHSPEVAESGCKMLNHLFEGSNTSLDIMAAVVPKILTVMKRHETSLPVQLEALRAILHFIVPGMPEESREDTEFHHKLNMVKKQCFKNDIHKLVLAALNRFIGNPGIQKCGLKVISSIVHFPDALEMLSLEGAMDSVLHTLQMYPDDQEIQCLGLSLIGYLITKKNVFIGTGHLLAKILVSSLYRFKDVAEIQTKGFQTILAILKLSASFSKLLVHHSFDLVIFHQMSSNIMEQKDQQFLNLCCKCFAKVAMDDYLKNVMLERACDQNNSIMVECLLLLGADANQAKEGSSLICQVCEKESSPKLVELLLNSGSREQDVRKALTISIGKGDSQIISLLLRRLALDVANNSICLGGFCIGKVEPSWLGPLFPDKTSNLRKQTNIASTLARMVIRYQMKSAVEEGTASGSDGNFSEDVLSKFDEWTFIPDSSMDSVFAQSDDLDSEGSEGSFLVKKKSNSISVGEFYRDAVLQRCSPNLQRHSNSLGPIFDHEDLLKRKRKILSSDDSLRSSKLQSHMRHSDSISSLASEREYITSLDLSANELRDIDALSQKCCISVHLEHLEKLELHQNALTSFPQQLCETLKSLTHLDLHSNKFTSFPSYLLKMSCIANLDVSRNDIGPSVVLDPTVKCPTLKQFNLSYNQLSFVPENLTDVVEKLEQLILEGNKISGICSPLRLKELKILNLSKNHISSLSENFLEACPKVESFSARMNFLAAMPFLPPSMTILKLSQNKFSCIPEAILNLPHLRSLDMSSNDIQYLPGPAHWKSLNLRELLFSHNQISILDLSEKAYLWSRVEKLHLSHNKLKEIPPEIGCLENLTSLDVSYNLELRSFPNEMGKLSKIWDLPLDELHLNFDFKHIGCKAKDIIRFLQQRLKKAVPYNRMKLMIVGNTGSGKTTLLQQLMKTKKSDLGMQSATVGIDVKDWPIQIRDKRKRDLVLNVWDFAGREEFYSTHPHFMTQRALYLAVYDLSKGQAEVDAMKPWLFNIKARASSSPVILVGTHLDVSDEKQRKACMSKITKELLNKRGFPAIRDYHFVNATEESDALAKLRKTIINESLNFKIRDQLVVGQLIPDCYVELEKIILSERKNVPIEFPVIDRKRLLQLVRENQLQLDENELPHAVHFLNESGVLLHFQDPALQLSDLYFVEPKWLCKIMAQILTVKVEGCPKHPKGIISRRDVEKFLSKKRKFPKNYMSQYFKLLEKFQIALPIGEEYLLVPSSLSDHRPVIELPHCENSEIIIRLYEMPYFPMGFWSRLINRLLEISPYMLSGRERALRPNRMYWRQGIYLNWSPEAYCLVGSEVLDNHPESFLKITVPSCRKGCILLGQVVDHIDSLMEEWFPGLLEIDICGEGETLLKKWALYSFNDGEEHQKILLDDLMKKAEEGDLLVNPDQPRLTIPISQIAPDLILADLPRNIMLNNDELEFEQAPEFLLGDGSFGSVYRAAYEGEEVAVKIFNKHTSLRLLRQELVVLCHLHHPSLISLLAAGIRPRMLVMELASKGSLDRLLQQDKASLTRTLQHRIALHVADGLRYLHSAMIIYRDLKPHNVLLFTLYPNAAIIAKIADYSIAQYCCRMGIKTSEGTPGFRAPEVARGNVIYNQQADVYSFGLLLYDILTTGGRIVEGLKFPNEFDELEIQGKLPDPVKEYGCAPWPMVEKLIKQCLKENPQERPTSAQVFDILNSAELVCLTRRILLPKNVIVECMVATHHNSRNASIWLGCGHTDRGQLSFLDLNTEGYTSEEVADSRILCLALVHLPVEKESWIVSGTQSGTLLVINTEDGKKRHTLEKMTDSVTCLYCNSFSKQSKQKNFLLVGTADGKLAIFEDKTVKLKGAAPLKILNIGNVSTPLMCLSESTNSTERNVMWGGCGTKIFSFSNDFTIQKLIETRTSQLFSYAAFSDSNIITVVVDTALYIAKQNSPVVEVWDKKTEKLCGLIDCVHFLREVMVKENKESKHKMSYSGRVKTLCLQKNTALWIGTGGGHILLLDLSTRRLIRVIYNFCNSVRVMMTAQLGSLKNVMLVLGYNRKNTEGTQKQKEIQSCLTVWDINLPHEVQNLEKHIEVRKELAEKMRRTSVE
T4 sequence (P50613 whole entry): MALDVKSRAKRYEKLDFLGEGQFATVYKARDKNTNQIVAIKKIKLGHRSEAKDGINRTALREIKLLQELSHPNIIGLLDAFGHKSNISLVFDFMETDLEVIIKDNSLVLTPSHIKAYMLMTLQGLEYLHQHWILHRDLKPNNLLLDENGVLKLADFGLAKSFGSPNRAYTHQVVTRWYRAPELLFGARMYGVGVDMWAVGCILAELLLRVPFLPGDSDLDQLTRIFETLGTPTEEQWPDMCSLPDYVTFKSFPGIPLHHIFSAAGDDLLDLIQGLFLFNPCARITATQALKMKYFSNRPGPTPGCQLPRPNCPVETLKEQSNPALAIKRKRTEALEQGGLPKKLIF
T11 sequence (P49761 whole entry): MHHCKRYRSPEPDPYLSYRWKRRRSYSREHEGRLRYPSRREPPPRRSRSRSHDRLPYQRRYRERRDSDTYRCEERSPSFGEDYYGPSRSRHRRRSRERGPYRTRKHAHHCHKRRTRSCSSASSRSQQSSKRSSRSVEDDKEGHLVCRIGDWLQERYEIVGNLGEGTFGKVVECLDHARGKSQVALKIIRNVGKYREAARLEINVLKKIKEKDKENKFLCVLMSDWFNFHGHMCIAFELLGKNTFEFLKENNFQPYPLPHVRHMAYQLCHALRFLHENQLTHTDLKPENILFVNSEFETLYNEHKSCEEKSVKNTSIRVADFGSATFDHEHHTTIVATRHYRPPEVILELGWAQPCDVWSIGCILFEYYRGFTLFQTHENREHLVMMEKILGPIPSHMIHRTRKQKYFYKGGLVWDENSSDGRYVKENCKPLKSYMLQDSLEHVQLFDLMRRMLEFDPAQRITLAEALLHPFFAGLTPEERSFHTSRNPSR

As for `COc1ccc2c(c1)[nH]c1c(C)nccc12` [Harmine, reference compound], the remaining binding at 10 µM on IRAK1 stood at 17%; at DYRK1B, 6.1%; at CSNK1G2, 19%; on CDK7 it was 21%.

As to `COc1ccc2c(c1)[nH]c1c(C)nc(CO)cc12` [Compound 2-8, (1-Methyl-7-methoxy-9H-pyrido[3,4-b]indol-3-yl)methanol], the remaining binding at 10 µM at IRAK4 (IRAK4, 10 μM) was 70%; on KIT (KIT, 10 μM), 98%; on FLT3(N841I) (FLT3(N841I) mutant, 10 μM), 74%; at LRRK2(G2019S) (LRRK2(G2019S) mutant, 10 μM), 98%; at ADCK4 (ADCK4, 10 μM) it was 84%; on CAMK2A (CAMK2A, 10 μM), 53%. Besides, the remaining binding at 10 µM amounted to 36% at CLK3 (CLK3, 10 μM); 67% on PIK3CG (PIK3CG, 10 μM); 82% at KIT(V559D) (KIT(V559D) mutant, 10 μM).

Consider `COc1ccc2c3ccnc(C)c3n(CCCc3noc(N)n3)c2c1` [Compound 20-13, 3-(3-(7-Methoxy-1-methyl-β-carbolin-9-yl)propyl)-5-amino-1,2,4-oxadiazole], for which the remaining binding at 10 µM turned out to be 90% at IRAK4; 100% on KIT; 78% on FLT3(N841I); 5.1% on LRRK2(G2019S); 100% on ADCK4; 58% at IRAK1. The remaining binding at 10 µM was 1% at DYRK1B; 91% at CSNK1G2; 72% at CAMK2A; 54% at CLK3; 3.3% on PIK3CG; 100% at KIT(V559D). In addition, the remaining binding at 10 µM on CDK7 came out at 51%.

For the compound `C#CCn1c2cc(OC)ccc2c2ccnc(C)c21` [Compound 20-23a, 3-(7-Methoxy-1-methyl-β-carbolin-9-yl)-propan-1-yne], the remaining binding at 10 µM on IRAK4 came out at 6.4%; at KIT, 83%; at FLT3(N841I) it was 41%; at LRRK2(G2019S), 100%; at ADCK4 it was 9.3%; at IRAK1 (IRAK1, 10 μM) it was 42%. Also, the remaining binding at 10 µM on DYRK1B (DYRK1B, 10 μM) was determined as 1.1%; on CSNK1G2 (CSNK1G2, 10 μM), 56%; at CAMK2A, 13%; on CLK3, 19%; at PIK3CG, 42%; at KIT(V559D), 90%. The remaining binding at 10 µM at CDK7 (CDK7, 10 μM) stood at 0.8%.
